“Also recorded” adds a separate entry of the source.
Columns and labels:
DMC1 ΔN [1] = biological target: T1, DMC1 ΔN (Homo sapiens, UniProt Q14565); test: Amylose pull-down of DMC1 ΔN with MBP-BRCA2 fusions; assay type: binding; settings: recombinant co-expression with MBP-BRCA2 fusion
T1 construct: DMC1 ΔN (83-340) were cloned into pHAT4; His6 (TEV-cleavable) (N, cleaved yes); made in house; host or cells: E. coli BL21 (DE3)
T1 sequence (Q14565 83-340): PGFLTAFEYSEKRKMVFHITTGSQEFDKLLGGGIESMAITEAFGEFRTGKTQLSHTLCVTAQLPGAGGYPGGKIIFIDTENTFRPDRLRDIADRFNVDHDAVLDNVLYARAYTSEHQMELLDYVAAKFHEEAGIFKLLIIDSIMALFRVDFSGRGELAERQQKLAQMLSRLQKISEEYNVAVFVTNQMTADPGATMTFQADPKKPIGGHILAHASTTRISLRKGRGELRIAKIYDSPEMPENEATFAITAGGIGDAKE
From the text: For affinity pulldown experiments, MBP-fusions of BRCA2 fragments (Ex14, amino-acids 2387-2420, Ex14-Tr, amino acids 2401-2414, Ex27, amino acids 3270-3315, BRC4, amino acids 1519-1551) were cloned into pMAT11 vectors[54] and co-expressed with DMC1 ΔN, DMC1 ΔN loop mutant (in which DMC1 amino acids 147-GAGGYPG-153 and 178-NVDHDA-183 were replaced by the cognate sequences of RAD51 148-IDRGGGE-154 and 179-GLSGSD-184), RAD51 ΔN, RAD51 ΔN loop mutant (the reverse switch of DMC1 ΔN loop mutant), and RAD51. MBP-fusions and complexes were purified through amylose affinity chromatography.

RAD51-ssDNA filaments = test: EMSA, protection of RAD51-ssDNA filaments from BRC4-mediated disruption (random sequence ssDNA); assay type: biochemical; settings: 100-nt random ssDNA; 10-fold excess of Ex27
Method: (§1) To form nucleoprotein filaments, DMC1 and RAD51 was incubated with fluorescent 100-base ssDNA (5’-FAM- […]-3’) at the concentrations indicated in the figures for 30 minutes at 4 °C in reaction buffer. For DMC1, reaction buffer is 25 mM TEA (triethanolamine) pH 7.5, 1 mM ATP, 2 mM MgCl2, 0.1 mg/ml BSA, 2 mM DTT, 200 mM KCl. For RAD51, reaction buffer is 50 mM TEA (triethanolamine), 2 mM ATP, 0.5 mM MgCl2, 2 mM DTT. For assays requiring incomplete nucleoprotein filament assembly, the reaction buffer consisted of 50 mM TAE (tris, acetate, EDTA) pH 7.5, 2 mM ATP, 2 mM MgCl2, 2 mM DTT. In nucleoprotein formation stimulation assays or supershift experiments, BRCA2Ex14 or BRCA2Ex14-AAA were added for a further 30 min at 4 °C. […] Glycerol was added at a final concentration of 3%, and samples were analysed by electrophoresis on a 1% (w/v) (for DMC1) or 0.66% (w/v) (for RAD51) agarose gel in 0.5x TAE pH 8.0 at 20–40 V for ~4 h at 4 °C. DNA was detected by FAM using a Typhoon^TM FLA 9500 (GE Healthcare), with 473 nm laser at excitation wavelength 490 nm and emission wavelength 520 nm, using the LPB filter and a PMT voltage of 500 V. To analyse RAD51 nucleoprotein filaments assembled upon 100-base poly(dT) ssDNA, gels were stained post-run using SYBR^TM Gold Nucleic Acid Gel Stain (Invitrogen) and detected using a Typhoon^TM FLA 9500 (GE Healthcare).

DMC1-ssDNA filaments [2] = test: EMSA, protection of DMC1-ssDNA filaments from BRC4-mediated disruption; assay type: biochemical, human; settings: TEA pH 7.5 + KCl; Ex14 10-fold stoichiometric excess (110 μM); 10-fold excess of BRC4
Method: Finally, we tested whether binding of BRCA2 Ex14 protects DMC1-ssDNA nucleoprotein filaments from BRC4-mediated disruption (Fig. 3c). […] Further, whilst the core PhePP interaction site is sufficient to stimulate DMC1-ssDNA nucleoprotein filament formation, surrounding amino-acids that are present within Ex14 (but not Ex14-Tr) are necessary to super-shift filaments and confer protection from BRC4-mediated disruption.
as §1

[3] = system: DMC1 V179E-ssDNA filaments; test: EMSA, super-shift of filaments formed using DMC1 V179E; assay type: biochemical, human
Method: as §1

[4] = system: RAD51-ssDNA (polydT) filaments; test: EMSA, protection of RAD51-ssDNA (polydT) filaments from BRC4-mediated disruption; assay type: biochemical; settings: 100-nt polydT; 10-fold excess of Ex27
Method: as §1

DMC1-ssDNA filaments [5] = test: EMSA, stimulation of DMC1-ssDNA filament formation (TAE pH 7.5); assay type: biochemical, human
From the text: (§2) What is the function of the BRCA2 Ex14-DMC1 interaction? We used electrophoretic mobility shift assays (EMSAs) to determine the impact of BRCA2-binding on DMC1 nucleoprotein filaments. We used two different conditions for nucleoprotein filament assembly. Firstly, a TAE (tris, acetate, EDTA; pH 7.5) buffer that was previously used for RAD51-ssDNA filaments, in which DMC1-ssDNA filaments were partially formed at the canonical ratio of three nucleotides to one protomer (Fig. 3a). Secondly, a TEA (triethanolamine; pH 7.5) + KCl buffer based on previous DMC1 studies[36]–[38], in which DMC1-ssDNA filament formation was more complete at the canonical ratio (Fig. 3b). […] This was noticeable using Ex14 in equimolar amounts (11 μM), and became substantial at a 5-fold stoichiometric excess (55 μM) (Fig. 3b). As the KD of the DMC1-Ex14 interaction is approximately 30 μM (Fig. 2a), the requirement for a stoichiometric excess is likely due to binding being favoured at Ex14 concentrations above the KD.
as §1

DMC1-ssDNA filaments [6] = test: EMSA, super-shift of DMC1-ssDNA filaments (TEA pH 7.5 + KCl); assay type: biochemical, human; settings: 100-nt random ssDNA, 4 °C
From the text: as §2, §1

DMC1 ΔN [7] = biological target: T1, DMC1 ΔN; test: Microscale thermophoresis (MST), BRCA2 peptides and DMC1 ΔN; assay type: binding; settings: labelled DMC1 ΔN 150 nM; pH 8.0
Method: DMC1 ΔN and DMC1 ΔN loop mutant were labelled in 10 mM HEPES pH 8.0, 150 mM NaCl with an amine reactive fluorescent dye (MonolithTM Protein Labelling Kit BLUE-NHS, Nanotemper GmbH). A serial dilution of titrant (peptide) was prepared in 10 mM HEPES pH 8.0, 150 mM NaCl, 0.05 % Tween-20. The concentration of labelled DMC1 ΔN or DMC1 ΔN loop mutant were constant at 150 nM and the concentration of the interacting peptide was titrated in 1:1 dilutions starting from 750 µM. An equal volume (10 µl) of the serial dilution and of the diluted labelled DMC1 were mixed and loaded in glass capillaries (MonolithTM NT.115 MST Premium Coated Capillaries, Nanotemper GmbH). The initial fluorescence and the thermophoretic mobility were measured on a Monolith NT.115 system (NanoTemper Technologies). The excitation power was 45 % and MST power was 60 % at room temperature (~22 °C). Laser on and off times were set at 5 and 30 seconds, respectively. Data analysis was performed with NT Affinity Analysis software.
As a change in initial fluorescence was detected, SDS denaturation (SD) tests were performed according to the manufacturer’s instructions to determine whether these changes were ligand-induced and whether the data could therefore be used to derive affinity measurements. Briefly, 7 µl of the samples containing the three highest and three lowest concentrations of peptide were mixed with 7 µl of denaturation buffer (4 % SDS, 40 mM DTT). After incubating each for 5 minutes at 95 °C to denature the proteins and subject to brief centrifugation, the samples were loaded onto Premium Coated Capillaries and their initial fluorescence measurements recorded. […] Initial fluorescence readings were used to derive binding affinities.

[8] = biological target: the molecule itself; test: crystal structure; DMC1 ΔN crystals soaked overnight with 3.5 mM BRCA2 Ex14-Tr peptide; anisotropic resolution limits 3.4-5.8 Å; peptide built with the guide of an AlphaFold2 model
RAD51;BRCA2 Ex27 = RAD51;BRCA2 Ex27 (Homo sapiens?;Homo sapiens?, UniProt Q06609;P51587 1-339;3270-3315, |); test: EMSA, BRC4 protection; 10-fold excess Ex27 + BRC4, complete protection; largely protected at 33 µM Ex27; DMC1: 25 mM TEA (triethanolamine) pH 7.5, 200 mM KCl, 1 mM ATP, 2 mM MgCl2, 0.1 mg/ml BSA, 2 mM DTT, or 50 mM TAE pH 7.5, 2 mM ATP, 2 mM MgCl2, 2 mM DTT; RAD51: 50 mM TEA, 2 mM ATP, 0.5 mM MgCl2, 2 mM DTT; all 4 C, agarose gel in 0.5x TAE; settings: tags: ;; label: none (SYBR Gold post-stain); single strand

Molecule: Ex14-AAA: Ex14 with alanine mutations F2406A, P2408A, P2409A (ATRNEKMRHLITTGRPTKVAVAAFKTKSHFHRVE; left off: His6, end not stated, cleaved | MBP, end not stated, cleaved)
- binding in pull-down (DMC1 ΔN [1]): not
- protection of RAD51-ssDNA filaments from BRC4-mediated disruption (RAD51-ssDNA filaments): not
- protection of DMC1-ssDNA filaments from BRC4-mediated disruption (DMC1-ssDNA filaments [2]): almost completely lost; also recorded: largely abrogated
- super-shift of DMC1 V179E-ssDNA filaments [3]: The residual super-shift was the same
- protection of RAD51-ssDNA (polydT) filaments from BRC4-mediated disruption [4]: not
- stimulation of DMC1-ssDNA nucleoprotein filament formation (DMC1-ssDNA filaments [5]; TAE pH 7.5, 100-nt random ssDNA, 4 °C, canonical ratio of three nucleotides to one protomer, equimolar for Ex14): largely failed to stimulate filament formation
- stimulation of DMC1-ssDNA filament formation at high concentrations (DMC1-ssDNA filaments [5]; high peptide concentrations): partial stimulation; also recorded: some stimulation of filament formation
- super-shift of pre-formed DMC1-ssDNA filaments (DMC1-ssDNA filaments [6]): largely failed to stimulate or super-shift; also recorded: largely eliminated
- interaction by MST (in words) (DMC1 ΔN [7]): largely disrupted; also recorded: not detectable

B1: DMC1 ΔN (amino-acids 83-340), purified (domain or fragment, human, UniProt Q14565 83-340, looked up)
chain: PGFLTAFEYSEKRKMVFHITTGSQEFDKLLGGGIESMAITEAFGEFRTGKTQLSHTLCVTAQLPGAGGYPGGKIIFIDTENTFRPDRLRDIADRFNVDHDAVLDNVLYARAYTSEHQMELLDYVAAKFHEEAGIFKLLIIDSIMALFRVDFSGRGELAERQQKLAQMLSRLQKISEEYNVAVFVTNQMTADPGATMTFQADPKKPIGGHILAHASTTRISLRKGRGELRIAKIYDSPEMPENEATFAITAGGIGDAKE
modifications: amine reactive fluorescent dye (Monolith Protein Labelling Kit BLUE-NHS) in the MST only
notes: human DMC1 with its N-terminal domain deleted, amino acids 83-340; Octameric ring in the crystal and in solution; also called DMC1 core; structural core of human DMC1; source: E. coli BL21 (DE3), purified (Ni-NTA, HiTrap Q, TEV cleavage, HiTrap Q, SEC)
- stoichiometry N [8]: 8

B2: 100-nt poly(dT) (ssDNA)
DNA: TTTTTTTTTTTTTTTTTTTTTTTTTTTTTTTTTTTTTTTTTTTTTTTTTTTTTTTTTTTTTTTTTTTTTTTTTTTTTTTTTTTTTTTTTTTTTTTTTTTT
- binding result (RAD51;BRCA2 Ex27): binds

From publication PMC11436757, “BRCA2 stabilises RAD51 and DMC1 nucleoprotein filaments through a conserved interaction mode” (Nature Communications, 2024)
